Measurements as given in article PMC2990605 (British Journal of Cancer, 2010).
“Also recorded” adds a separate entry of the source.

How the values were obtained:
[1] = Dose-limiting toxicity and maximum tolerated dose of the paclitaxel/tosedostat combination; type: in vivo, patients
Description: The starting dose of CHR-2797 was 90 mg daily, below the MTD.
Toxicity was evaluated according to common toxicity criteria for adverse events (CTCAEv3.0). The MTD was defined as the dose level(s) at which at least two out of six patients developed DLT.

[2] = system: advanced solid malignancies; assay: Antitumour activity, Response Evaluation Criteria in Solid Tumors; type: in vivo, patients; conditions: tosedostat with paclitaxel
Description: Response was evaluated according to Response Evaluation Criteria in Solid Tumors ([Therasse et al, 2000]) after every second cycle.

relapsed/refractory AML = system: relapsed/refractory AML; set-up: method as in Ossenkoppele et al, 2009; Reid et al, 2009; conditions: tosedostat monotherapy, ref Ossenkoppele et al, 2009, Reid et al; cited from earlier work
[3] = system: human promyelocytic leukaemia cell line HL-60; set-up: method as in Krige et al, 2008; conditions: ref Krige et al, 2008; cited from earlier work
cancer cell lines = system: cancer cell lines; set-up: method as in Jenkins et al, 2007; Moore et al, 2009; conditions: wide range of cancer cell lines in vitro; ref Jenkins et al, 2007; Moore et al, 2009; cited from earlier work
transformed cells = system: transformed cells; set-up: method as in Krige et al, 2008; conditions: in vitro and in vivo experiments; ref Krige et al, 2008; cited from earlier work
[4] = cited from earlier work
[5] = Plasma pharmacokinetics of tosedostat, CHR-79888 and paclitaxel (LC-MS/MS, noncompartmental); conditions: for AUC(0-t) / Cmax / Tmax / half-life / Vd/F: human, oral, mean (±s.e.m.); for AUC(0-t): AUC0−t; for half-life: T½; for Vd/F: Vz/F
Description: On day 21, samples were taken until 8 h post-dose; the day 22 predose sample was used as the 24 h sample of day 21. […] Peak plasma concentrations (Cmax), overall drug exposure (AUC), and terminal plasma half-life (t½) were calculated using noncompartmental methods using WinNonlin Professional software (version 4.1, Pharsight Corporation, St Louis, MO, USA). Pharmacokinetics analysis, with reference to possible interactions, was descriptive.

[6] = plasma, 90 mg, cohort 1: CHR-2797 90 mg, paclitaxel 135 mg m^−2, day 21, tosedostat without paclitaxel, plasma
[7] = plasma, 90 mg, cohort 2: CHR-2797 90 mg, paclitaxel 175 mg m^−2, day 21, tosedostat without paclitaxel, plasma
[8] = plasma, 130 mg, cohort 3: CHR-2797 130 mg, paclitaxel 175 mg m^−2, day 21, tosedostat without paclitaxel, plasma
[9] = plasma, 180 mg, cohort 4: CHR-2797 180 mg, paclitaxel 175 mg m^−2, day 21, tosedostat without paclitaxel, plasma
[10] = plasma, cohort 1: CHR-2797 90 mg, paclitaxel 135 mg m^−2, day 22, tosedostat in combination with paclitaxel, plasma
[11] = plasma, cohort 2: CHR-2797 90 mg, paclitaxel 175 mg m^−2, day 22, tosedostat in combination with paclitaxel, plasma
[12] = plasma, cohort 3: CHR-2797 130 mg, paclitaxel 175 mg m^−2, day 22, tosedostat in combination with paclitaxel, plasma
[13] = plasma, cohort 4: CHR-2797 180 mg, paclitaxel 175 mg m^−2, day 22, tosedostat in combination with paclitaxel, plasma

With CC(C)C[C@@H](C(=O)N[C@H](C(=O)OC1CCCC1)c1ccccc1)[C@H](O)C(=O)NO [tosedostat] the “DLTs observed in the study” value ([1]; all cohorts, 22 patients, tosedostat with paclitaxel) was “only one DLT observed in 22 patients”, the DLT ([1]; cohort 5: tosedostat 180 mg combined with paclitaxel 175 mg m^−2, one patient, first 21 days) was “One DLT (grade 3 dyspnoea); also recorded: CTC grade 3 dyspnoea, with grade 2 fever and persistent grade 3 urinary tract infection” and the “grade 3/4 toxicity in dose-escalation phase” value ([1]; cohort 6: 175 mg m^−2 paclitaxel, 240 mg tosedostat, three patients) was “without any grade 3/4 toxicity”. For the same compound, the “MTD of tosedostat combined with paclitaxel” value ([1]; tosedostat 90–240 mg daily, paclitaxel 135–175 mg m^−2 every 3 weeks) was “No formal MTD was determined; also recorded: Formal MTD was never reached; also recorded: not reached”, the “response duration of PR” value ([2]; patient with malignant melanoma) was 7.2 months and the “response duration of PR” value ([2]; patient with squamous cell non-small-cell lung cancer) was 7.1 months. The “response duration of PR” value ([2]; patient with squamous-cell carcinoma of the oesophagus) was 1.5 months, the “stable disease lasting >3 months, patients” value [2] was 12 and the “Median (95% CI) duration of s.d.” value ([2]; 12 patients) was 5.6 (3–6.5) months. The “partial response, patients” value ([2]; 21 assessable patients) was 3, the “stable disease, % of patients” value ([2]; 21 assessable patients) was 57% and the “stable disease, patients” value ([2]; 21 assessable patients) was 12. The “partial response, % of patients” value ([2]; 21 assessable patients, confirmed after ⩾4 weeks) was 14%, the response rate (relapsed/refractory AML) was 31.4% and the “gene expression analysis, transcriptional response” value [3] was “transcriptional response to the drug indicative of amino acid depletion”. For the same compound, the “phosphorylation of mTOR substrates” value [3] was “inhibited”, the protein synthesis [3] was “reduced” and the “combination with chemotherapeutic agents, antiproliferative effects” value (cancer cell lines) was “synergises”. The selectivity (transformed cells) was “selectivity for transformed over nontransformed cells”, the effect on platelets ([4]; single agent dose escalation studies, ref Ossenkoppele et al, 2009, Reid et al) was “platelet suppressive effect” and the “most commonly reported AEs” value ([4]; single agent oral daily dosing, ref Reid et al, 2009) was “fatigue, thrombocytopenia, peripheral oedema and diarrhoea”. The “Dose-limiting toxicities, patients” value ([4]; single agent tosedostat 320 mg, ref Reid et al, 2009) was “two of four patients”, the “MTD with single agent tosedostat” value ([4]; solid tumour patients treated for at least 28 days, oral daily, ref Reid et al, 2009) was 240 mg and the “effect of paclitaxel coadministration on Cmax, tmax and t½” value ([5]; day 21 versus day 22) was “tendency for a decreased Cmax and an increased tmax and t½”. The “effect of paclitaxel coadministration on overall exposure (AUC0−t)” value ([5]; day 21 versus day 22) was “unaffected by paclitaxel administration; also recorded: unaffected by paclitaxel coadministration”, the AUC(0-t) [5, 6] was 1140 ng·h/mL and the AUC(0-t) [5, 7] was 1890 ng·h/mL. The Cmax [5, 6] was 522 ng/mL, the Cmax [5, 7] was 969 ng/mL and the Tmax [5, 6] was 1.2 h. For the same compound, the Tmax [5, 7] was 1.2 h, the half-life [5, 6] was 1.2 h and the half-life [5, 7] was 1.3 h. The Vd/F [5, 6] was 179 L, the Vd/F [5, 7] was 72 L and the AUC(0-t) [5, 8] was 1920 ng·h/mL. It also gave a Cmax [5, 8] of 880 ng/mL, a Tmax [5, 8] of 1.7 h and a half-life [5, 8] of 1.1 h. The Vd/F [5, 8] was 112 L, the AUC(0-t) [5, 9] was 2520 ng·h/mL and the Cmax [5, 9] was 1400 ng/mL. It also gave a Tmax [5, 9] of 1.7 h, a half-life [5, 9] of 1.1 h and a Vd/F [5, 9] of 123 L. For the same compound, the AUC(0-t) [5, 10] was 896 ng·h/mL, the AUC(0-t) [5, 11] was 1410 ng·h/mL and the AUC(0-t) [5, 12] was 1400 ng·h/mL. It also gave an AUC(0-t) [5, 13] of 1710 ng·h/mL, a Cmax [5, 10] of 289 ng/mL and a Cmax [5, 11] of 527 ng/mL. The Cmax [5, 12] was 615 ng/mL, the Cmax [5, 13] was 399 ng/mL and the Tmax [5, 10] was 4 h. For the same compound, the Tmax [5, 11] was 2 h, the Tmax [5, 12] was 1.3 h and the Tmax [5, 13] was 4 h. It also gave a half-life [5, 10] of 2.4 h, a half-life [5, 11] of 3.1 h and a half-life [5, 12] of 4 h. For the same compound, the half-life [5, 13] was 3.1 h, the Vd/F [5, 10] was 258 L and the Vd/F [5, 11] was 276 L. The Vd/F [5, 12] was 587 L, the Vd/F [5, 13] was 471 L and the “PK interaction between tosedostat and paclitaxel” value ([5]; in vivo) was “no PK interaction”. For the same compound, the “overall exposure versus dose” value ([5]; tosedostat 90–180 mg, plasma) was “increased in a dose proportional manner”.
